Here are results for two molecules from paper PMC4368451 (Cancer chemotherapy and pharmacology, 2015).

One series relates to A549 tumor. The format is in vivo, Female athymic NCr-nu/nu nude mice. The note with it: 5 mg/kg i.p. on four consecutive days.
Series [1] relates to SW620 (colorectal adenocarcinoma) cells. Put plainly: Cell cycle distribution. Format: cell-based. To be noted: SW620, 24 hours.
Series [2] can be described thus: Prodrug processing in plasma or whole blood. Format: in vitro ADME.
Series [3] relates to A549 non-small cell lung carcinoma xenograft. Briefly: A549 xenograft model. Format: in vivo, Female athymic NCr-nu/nu nude mice. To be noted: for TGI % (tumor growth inhibition): 5 mg/kg i.p. every other day for 13 days, day 23, relative to control; for tumor growth: 5 mg/kg i.p. every other day for thirteen days.

Turning to `CCCCCCCC(=O)SCC/C=C/[C@@H]1CC(=O)NCc2nc(cs2)C2=N[C@@](C)(CS2)C(=O)N[C@@H](C(C)C)C(=O)O1` [Largazole], the “acetylated H3 and H4 in tumor lysates (western blot) relative to control” value in the series on A549 tumor is on record as “increased acetylation relative to control”. Also, in series [1], the “cell cycle dose dependence” value is “clear switch from G1 to G2 arrest with increasing concentration” and the “concentration for G2 arrest” value is more than 50 nM. The “prodrug level after room temperature incubation in plasma or whole blood” value in series [2] was “< LLOQ after ten minutes”. In series [3], the “TGI % (tumor growth inhibition)” value was 32% and the “tumor growth” value is reported as “tumor growth rate was slower”. The “TGI % (tumor growth inhibition)” value in series [3] (listed as Larg.) was 32%.
For Largazole thiol, the “tumor growth” value in series [3] is “tumor growth rate was slower”.
